Experimental data as given in patent US11542273B2, “Amide compound having bet proteolysis-inducing action and medicinal application thereof” (MITSUBISHI TANABE PHARMA CORPORATION, priority 2018, dated 2023).
pIC50: −log10 of the molar value.

Assays:
BRD4 protein = BRD4 protein (Homo sapiens (Human), UniProt O60885); test: BRD4 protein degradation inducing action in cancer cells (immunofluorescence, Operetta); type: cell-based; conditions: LNCaP cells, 6 hr treatment, fluorescence intensity
In short: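 DC50 = compound concentration reducing BRD4 immunofluorescence to 50% of untreated cells, interpolated between the two flanking concentrations. Treatment: LNCaP cells, 6 hr, 10% FBS/RPMI1640, 37° C. Cells were then fixed, permeabilized, stained with anti-BRD4 and Alexa Fluor 488 or 546 secondaries, and imaged.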

[1] = system: human prostate cancer LNCaP cells; test: Cytotoxic action on cancer cells (WST-8, 96 hr); type: cell-based; conditions: Homo sapiens, LNCaP, 96 h, read-out: LNCaP cytotoxic activity: IC50
In short: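 Viability was read by WST-8 after 96 hr of compound exposure, normalised to untreated wells, with cells pre-cultured overnight in 10% FBS/RPMI1640 at 37 °C and 5% CO2. IC50 comes from a straight line between the two survival points enclosing 50%.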

Row | SMILES | DC50 (BRD4 protein) | pIC50 [1]
1 | COC(=O)C[C@@H]1N=C(c2ccc(-c3ccc(C(=O)N[C@H](C(=O)N4C[C@H](O)C[C@H]4C(=O)NCc4ccc(-c5ocnc5C)cc4)C(C)(C)C)cc3)cc2)c2c(sc(C)c2C)-n2c(C)nnc21 [Example 218, methyl {(6S)-4-[4′-({(2S)-1-[(2S,4R)-4-hydroxy-2-({[4-(4-methyl-1,3-oxazol-5-yl)phenyl]methyl}carbamoyl)pyrrolidin-1-yl]-3,3-dimethyl-1-oxobutan-2-yl}carbamoyl) [1,1′-biphenyl]-4-yl]-2,3,9-trimethyl-6H-thieno [3,2-f][1,2,4]triazolo [4,3-a] [1,4]diazepin-6-yl}acetate] | 0.41 nM | 9.43
2 | CCOC(=O)c1ncsc1-c1ccc(CNC(=O)[C@@H]2C[C@@H](O)CN2C(=O)[C@@H](NC(=O)c2ccc(-c3ccc(C4=N[C@@H](CC(=O)OC)c5nnc(C)n5-c5sc(C)c(C)c54)cc3)cc2)C(C)(C)C)cc1 [Example 219, ethyl 5-{4-[({(2S,4R)-4-hydroxy-1-[(2S)-2-({4′-[(6S)-6-(2-methoxy-2-oxoethyl)-2,3,9-trimethyl-6H-thieno[3,2-f] [1,2,4]triazolo[4,3-a][1,4]diazepin-4-yl][1,1′-biphenyl]-4-carbonyl}amino)-3,3-dimethylbutanoyl]pyrrolidine-2-carbonyl}amino)methyl]phenyl}-1,3-thiazole-4-carboxylate] | 0.52 nM | 9.28
3 | COC(=O)C[C@@H]1N=C(c2ccc(-c3ccc(C(=O)N[C@H](C(=O)N4C[C@H](O)C[C@H]4C(=O)NCc4ccc(-c5scnc5CO)cc4)C(C)(C)C)cc3)cc2)c2c(sc(C)c2C)-n2c(C)nnc21 [Example 220, methyl [(6S)-4-(4′-{[(2S)-1-{(2S,4R)-4-hydroxy-2-[({4-[4-(hydroxymethyl)-1,3-thiazol-5-yl]phenyl}methyl)carbamoyl]pyrrolidin-1-yl}-3,3-dimethyl-1-oxobutan-2-yl]carbamoyl}[1,1′-biphenyl]-4-yl)-2,3,9-trimethyl-6H-thieno[3,2-f][1,2,4]triazolo[4,3-a][1,4]diazepin-6-yl]acetate] | 0.92 nM | 9.04
4 | COC(=O)C[C@@H]1N=C(c2ccc(N3CC[C@H](C(=O)NCCOc4ccc5oc(C(=O)N[C@H](C(=O)N6C[C@H](O)C[C@H]6C(=O)N[C@@H](C)c6ccc(-c7scnc7C)cc6)C(C)(C)C)cc5c4)C3)cc2)c2c(sc(C)c2C)-n2c(C)nnc21 [Example Compound 68, methyl [(6S)-4-(4-{(3S)-3-[(2-{[2-({(2S)-1-[(2S,4R)-4-hydroxy-2-({(1S)-1-[4-(4-methyl-1,3-thiazol-5-yl)phenyl]ethyl}carbamoyl)pyrrolidin-1-yl]-3,3-dimethyl-1-oxobutan-2-yl}carbamoyl)-1-benzofuran-5-yl]oxy}ethyl)carbamoyl]pyrrolidin-1-yl}phenyl)-2,3,9-trimethyl-6H-thieno[3,2-f][1,2,4]triazolo[4,3-a][1,4]diazepin-6-yl]acetate] | 0.46 nM | 9.28
5 | COC(=O)C[C@@H]1N=C(c2ccc(N3CC[C@@H](OCC(=O)N[C@H](C(=O)N4C[C@H](O)C[C@H]4C(=O)N[C@@H](C)c4ccc(-c5scnc5C)cc4)C(C)(C)C)C3)cc2)c2c(sc(C)c2C)-n2c(C)nnc21 [Example Compound 69, methyl [(6S)-4-(4-{(3R)-3-[2-({(2S)-1-[(2S,4R)-4-hydroxy-2-({(1S)-1-[4-(4-methyl-1,3-thiazol-5-yl)phenyl]ethyl}carbamoyl)pyrrolidin-1-yl]-3,3-dimethyl-1-oxobutan-2-yl}amino)-2-oxoethoxy]pyrrolidin-1-yl}phenyl)-2,3,9-trimethyl-6H-thieno[3,2-f][1,2,4]triazolo[4,3-a][1,4]diazepin-6-yl]acetate] | 0.15 nM | 9.48
6 | COC(=O)C[C@@H]1N=C(c2ccc(-c3ccc(OCC(=O)N[C@H](C(=O)N4C[C@H](O)C[C@H]4C(=O)N[C@@H](C)c4ccc(-c5scnc5C)cc4)C(C)(C)C)cc3OC(F)(F)F)cc2)c2c(sc(C)c2C)-n2c(C)nnc21 [Example Compound 75, methyl [(6S)-4-{4′-[2-({(2S)-1-[(2S,4R)-4-hydroxy-2-({(1S)-1-[4-(4-methyl-1,3-thiazol-5-yl)phenyl]ethyl}carbamoyl)pyrrolidin-1-yl]-3,3-dimethyl-1-oxobutan-2-yl}amino)-2-oxoethoxy]-2′-(trifluoromethoxy)[1,1′-biphenyl]-4-yl}-2,3,9-trimethyl-6H-thieno[3,2-f] [1,2,4]triazolo[4,3-a][1,4]diazepin-6-yl]acetate] | 0.75 nM | 9.41
7 | COC(=O)C[C@@H]1N=C(c2ccc(-c3ccc(C(=O)N[C@@H](C)C(=O)N[C@H](C(=O)N4C[C@H](O)C[C@H]4C(=O)N[C@@H](C)c4ccc(-c5scnc5C)cc4)C(C)(C)C)cc3)cc2)c2c(sc(C)c2C)-n2c(C)nnc21 [Example Compound 91, methyl [(6S)-4-(4′-{[(2S)-1-({(2S)-1-[(2S,4R)-4-hydroxy-2-({(1S)-1-[4-(4-methyl-1,3-thiazol-5-yl)phenyl]ethyl}carbamoyl)pyrrolidin-1-yl]-3,3-dimethyl-1-oxobutan-2-yl}amino)-1-oxopropan-2-yl]carbamoyl}[1,1′-biphenyl]-4-yl)-2,3,9-trimethyl-6H-thieno[3,2-f] [1,2,4]triazolo[4,3-a][1,4]diazepin-6-yl]acetate] | 0.77 nM | 9.27
8 | COC(=O)C[C@@H]1N=C(c2ccc(-c3ccc(OCC(=O)N[C@H](C(=O)N4C[C@H](O)C[C@H]4C(=O)N[C@@H](C)c4ccc(-c5scnc5C)cc4)C(C)(C)C)c(C(F)(F)F)c3)cc2)c2c(sc(C)c2C)-n2c(C)nnc21 [Example Compound 100, methyl [(6S)-4-{4′-[2-({(2S)-1-[(2S,4R)-4-hydroxy-2-({(1S)-1-[4-(4-methyl-1,3-thiazol-5-yl)phenyl]ethyl}carbamoyl)pyrrolidin-1-yl]-3,3-dimethyl-1-oxobutan-2-yl}amino)-2-oxoethoxy]-3′-(trifluoromethyl)[1,1′-biphenyl]-4-yl}-2,3,9-trimethyl-6H-thieno[3,2-f] [1,2,4]triazolo[4,3-a][1,4]diazepin-6-yl]acetate] | 0.21 nM | 9.17
